From DBAASP
Converted amounts (≈) assume the structure as drawn.

Assays:
Test in all cases: ≥ marks a high value that may be exact or a test limit, other limits are often not marked, values filed in µg/mL are converted to µM
Acinetobacter baumannii = tested on: Acinetobacter baumannii
[1] = tested on: Escherichia coli ATCC 25922
[2] = tested on: Klebsiella pneumoniae ATCC 700603
[3] = tested on: Pseudomonas aeruginosa ATCC 9027
[4] = tested on: Staphylococcus aureus ATCC 25923
[5] = tested on: Acinetobacter baumannii ATCC 19606
Bacillus subtilis 168 = tested on: Bacillus subtilis 168
[6] = tested on: Bacillus subtilis ATCC 23857
[7] = tested on: Escherichia coli DH5alpha
[8] = tested on: Pseudomonas aeruginosa ATCC 27853
Escherichia coli B = tested on: Escherichia coli B
Pseudomonas aeruginosa = tested on: Pseudomonas aeruginosa
Staphylococcus aureus = tested on: Staphylococcus aureus
[9] = tested on: Enterococcus faecalis ATCC 29212
[10] = tested on: Staphylococcus epidermidis ATCC 12228
[11] = tested on: Candida albicans ATCC 10231

Row | SMILES | MIC [1] [µM] | MIC [4] [µM] | MIC (Bacillus subtilis 168) [µM] | MIC [6] [µM] | MIC (Escherichia coli B) [µM] | MIC (Pseudomonas aeruginosa) [µM] | MIC (Staphylococcus aureus) [µM] | further results
1 | CC[C@H](C)[C@H](NC(=O)[C@H](C)N)C(=O)N[C@@H](CC(C)C)C(=O)N[C@@H](CCCN=C(N)N)C(=O)N[C@@H](CCCCN)C(=O)N[C@@H](C)C(=O)N[C@H](C(=O)N[C@@H](CCCN=C(N)N)C(=O)N[C@@H](CCCN=C(N)N)C(=O)N[C@@H](CC(C)C)C(=O)N[C@H](C(=O)N[C@@H](CCC(N)=O)C(=O)N[C@@H](CC(C)C)C(=O)N[C@H](C(=O)N[C@H](C(=O)N[C@@H](CO)C(=O)NCC(=O)O)C(C)C)[C@@H](C)CC)C(C)C)[C@@H](C)O [AILRKATRRLVQLIVSG] | > 25 | > 25 |  |  |  |  |  | MIC (Acinetobacter baumannii): 25 µM (≈ 47.4 µg/mL); MIC [2]: > 25 µM; MIC [3]: > 25 µM
2 | CC[C@H](C)[C@H](NC(=O)[C@H](CCCCN)NC(=O)[C@H](CCCCN)NC(=O)[C@@H](NC(=O)[C@@H](NC(=O)[C@H](CCCCN)NC(=O)[C@H](CCCCN)NC(=O)[C@@H](NC(=O)[C@@H](NC(=O)CN)[C@@H](C)CC)[C@@H](C)CC)[C@@H](C)CC)[C@@H](C)CC)C(N)=O [GIIKKIIKKI] | ≥ 32 | ≥ 128 | 30 (≈ 34.6 µg/mL) | 16 (≈ 18.4 µg/mL) |  |  |  | MIC [5]: ≥ 64 µM; MIC [7]: ≥ 125 µM; MIC [2]: ≥ 128 µM; MIC [8]: ≥ 64 µM
3 | CC[C@H](C)[C@H](NC(=O)CN)C(=O)N[C@@H](CCCCN)C(=O)N[C@@H](CCCN=C(N)N)C(=O)NCC(=O)N[C@H](C(=O)N[C@H](C(=O)N[C@@H](CCCCN)C(=O)N[C@H](C(=O)N[C@H](C(=O)N[C@@H](CCCCN)C(=O)N[C@@H](CCCN=C(N)N)C(N)=O)[C@@H](C)CC)[C@@H](C)CC)[C@@H](C)CC)[C@@H](C)CC [GIKRGIIKIIKR] | > 128 |  |  | ≥ 32 |  |  |  | 
4 | CC(C)C[C@H](NC(=O)[C@H](CC(C)C)NC(=O)[C@@H](NC(=O)[C@H](CCCCN)NC(=O)[C@H](C)NC(=O)[C@H](CCCN=C(N)N)NC(=O)[C@H](CCCCN)NC(=O)[C@H](C)NC(=O)[C@H](CC(C)C)NC(=O)CN)[C@@H](C)O)C(N)=O [GLAKRAKTLL] | > 512 | > 512 |  | ≥ 512 |  |  |  | MIC [5]: > 512 µM; MIC [9]: > 512 µM; MIC [2]: > 512 µM; MIC [8]: > 512 µM; MIC [10]: > 512 µM
5 | CC(C)C[C@H](NC(=O)[C@H](Cc1ccc(O)cc1)NC(=O)[C@H](CCCCN)NC(=O)[C@H](CC(C)C)NC(=O)[C@H](CC(C)C)NC(=O)[C@H](CCCCN)NC(=O)[C@H](CCCCN)NC(=O)[C@H](Cc1ccccc1)NC(=O)[C@H](CC(C)C)NC(=O)[C@H](CCCN=C(N)N)NC(=O)[C@@H](N)CCCCN)C(=O)N[C@@H](CCCN=C(N)N)C(=O)N[C@@H](CCCCN)C(=O)N[C@@H](Cc1ccccc1)C(=O)O [KRLFKKLLKYLRKF] | 0.531 (≈ 1 µg/mL) | 0.531 (≈ 1 µg/mL) |  |  |  | 2.13 (≈ 4 µg/mL) |  | MIC [5]: 1.06 µM (≈ 2 µg/mL); MIC (Acinetobacter baumannii): 1.06 µM (≈ 2 µg/mL); MIC [11]: 2.13 µM (≈ 4 µg/mL); MIC [8]: 1.06 µM (≈ 2 µg/mL)
6 | CC[C@H](C)[C@H](NC(=O)CNC(=O)[C@H](CCCN=C(N)N)NC(=O)[C@H](Cc1ccc(O)cc1)NC(=O)[C@@H](NC(=O)[C@@H](NC(=O)[C@H](CCCN=C(N)N)NC(=O)[C@H](Cc1ccccc1)NC(=O)[C@@H](NC(=O)[C@H](Cc1c[nH]c2ccccc12)NC(=O)[C@H](Cc1c[nH]c2ccccc12)NC(=O)[C@@H](N)CCCCN)C(C)C)C(C)C)C(C)C)C(=O)N[C@H](C(=O)N[C@@H](Cc1ccc(O)cc1)C(=O)N[C@@H](CCCN=C(N)N)C(=O)N[C@@H](CCCN=C(N)N)C(=O)N[C@H](C(=O)N[C@@H](CCCN=C(N)N)C(=O)N[C@@H](Cc1c[nH]c2ccccc12)C(=O)N[C@@H](CCCCN)C(=O)O)C(C)C)C(C)C [KWWVFRVVYRGIVYRRVRWK] |  |  |  |  |  |  |  | MIC [7]: 12.5 µM (≈ 34.4 µg/mL)
7 | CC[C@H](C)[C@H](NC(=O)[C@H](CCCCN)NC(=O)[C@H](CCCCN)NC(=O)[C@H](C)NC(=O)[C@@H](NC(=O)[C@H](C)NC(=O)[C@H](CC(C)C)NC(=O)[C@H](C)NC(=O)[C@H](C)NC(=O)[C@H](CCCCN)NC(=O)[C@H](CC(C)C)NC(=O)[C@H](CC(N)=O)NC(=O)[C@@H](N)CC(C)C)C(C)C)C(=O)N[C@@H](CC(C)C)C(N)=O [LNLKAALAVAKKIL] | 8 (≈ 11.7 µg/mL) | 32 (≈ 46.9 µg/mL) |  | 8 (≈ 11.7 µg/mL) |  |  |  | MIC [2]: 16 µM (≈ 23.4 µg/mL); MIC [3]: 32 µM (≈ 46.9 µg/mL)
8 | CC[C@H](C)[C@H](NC(=O)CNC(=O)[C@@H](N)CCSC)C(=O)N[C@H](C(=O)N[C@@H](C)C(=O)NCC(=O)N[C@H](C(=O)N[C@H](C(=O)N[C@@H](CCCCN)C(=O)N[C@@H](Cc1ccccc1)C(=O)N[C@H](C(=O)N[C@@H](CCCCN)C(=O)NCC(=O)N[C@@H](CC(C)C)C(=O)N[C@H](C(=O)N[C@@H](CCC(=O)O)C(=O)N[C@@H](CCCCN)C(=O)N[C@@H](Cc1ccccc1)C(=O)N[C@H](C(=O)NCC(=O)N[C@@H](CCCCN)C(=O)O)[C@@H](C)O)[C@@H](C)CC)[C@@H](C)CC)[C@@H](C)CC)[C@@H](C)CC)[C@@H](C)CC [MGIIAGIIKFIKGLIEKFTGK] | > 128 |  |  | ≥ 128 |  |  |  | 
9 | CC[C@H](C)[C@H](NC(=O)[C@H](CCCCN)NC(=O)[C@H](CCCCN)NC(=O)[C@H](Cc1c[nH]c2ccccc12)NC(=O)[C@@H](NC(=O)[C@@H](N)CC(N)=O)C(C)C)C(=O)N[C@@H](CC(C)C)C(=O)NCC(=O)N[C@@H](CCCCN)C(=O)N[C@H](C(=O)N[C@H](C(=O)N[C@@H](CCCCN)C(=O)N[C@H](C(=O)N[C@H](C(=O)N[C@@H](CCCCN)C(N)=O)C(C)C)C(C)C)[C@@H](C)CC)[C@@H](C)CC [NVWKKILGKIIKVVK] |  |  | 0.7 (≈ 1.24 µg/mL) |  | 1.4 (≈ 2.47 µg/mL) | 23.1 (≈ 40.8 µg/mL) | 9 (≈ 15.9 µg/mL) | 
10 | CC[C@H](C)[C@H](NC(=O)[C@H](CCCCN)NC(=O)[C@@H]1CCCN1C(=O)[C@H](CC(C)C)NC(=O)[C@@H](NC(=O)[C@H](CCCCN)NC(=O)[C@H](CCCCN)NC(=O)[C@H](Cc1c[nH]c2ccccc12)NC(=O)[C@H](CC(N)=O)NC(=O)[C@@H](N)C(C)C)C(C)C)C(=O)N[C@H](C(=O)N[C@@H](CCCCN)C(=O)N[C@H](C(=O)N[C@@H](C)C(=O)N[C@@H](CCCCN)C(N)=O)C(C)C)[C@@H](C)CC [VNWKKVLPKIIKVAK] |  |  | 0.9 (≈ 1.59 µg/mL) |  | 5 (≈ 8.82 µg/mL) | 100 (≈ 176 µg/mL) | > 100 | 

Now from value to compound, other results behind:

Row | MIC [1] [µM] | MIC [4] [µM] | MIC (Bacillus subtilis 168) [µM] | MIC [6] [µM] | MIC (Escherichia coli B) [µM] | MIC (Pseudomonas aeruginosa) [µM] | MIC (Staphylococcus aureus) [µM] | SMILES | further results
11 |  |  | 9.3 (≈ 12.4 µg/mL) |  | ≥ 40 | > 100 | > 100 | CC[C@H](C)[C@H](NC(=O)[C@H](Cc1cnc[nH]1)NC(=O)[C@H](CCCCN)NC(=O)[C@H](CC(C)C)NC(=O)[C@H](CC(C)C)NC(=O)[C@H](CO)NC(=O)[C@H](CCSC)NC(=O)[C@H](C)NC(=O)[C@H](CCCCN)NC(=O)CN)C(=O)N[C@@H](CC(C)C)C(=O)N[C@@H](CCCCN)C(N)=O [GKAMSLLKHILK] | 
12 |  |  | 2.7 (≈ 3.81 µg/mL) |  | 20 (≈ 28.2 µg/mL) | 100 (≈ 141 µg/mL) | 130 (≈ 183 µg/mL) | CC[C@H](C)[C@H](NC(=O)[C@H](Cc1cnc[nH]1)NC(=O)[C@H](CCCCN)NC(=O)[C@H](CC(C)C)NC(=O)[C@H](C)NC(=O)[C@H](CO)NC(=O)[C@H](CCSC)NC(=O)[C@H](Cc1c[nH]c2ccccc12)NC(=O)[C@H](CCCCN)NC(=O)CN)C(=O)N[C@@H](CC(C)C)C(=O)N[C@@H](CCCCN)C(N)=O [GKWMSALKHILK] | 
13 |  |  | 1.3 (≈ 1.98 µg/mL) |  | 3.5 (≈ 5.34 µg/mL) | 25 (≈ 38.1 µg/mL) | 13.8 (≈ 21.1 µg/mL) | CSCC[C@H](NC(=O)[C@H](Cc1c[nH]c2ccccc12)NC(=O)[C@H](CCCCN)NC(=O)CN)C(=O)N[C@@H](CO)C(=O)N[C@@H](CC(C)C)C(=O)N[C@@H](CC(C)C)C(=O)N[C@@H](CCCCN)C(=O)N[C@@H](Cc1cnc[nH]1)C(=O)N[C@@H](Cc1c[nH]c2ccccc12)C(=O)N[C@@H](CC(C)C)C(=O)N[C@@H](CCCCN)C(N)=O [GKWMSLLKHWLK] | 
14 |  |  | 1.8 (≈ 2.6 µg/mL) |  | 2.5 (≈ 3.61 µg/mL) | 50 (≈ 72.2 µg/mL) | 10.8 (≈ 15.6 µg/mL) | CC[C@H](C)[C@H](NC(=O)[C@H](CCC(N)=O)NC(=O)[C@H](CCCCN)NC(=O)[C@H](CC(C)C)NC(=O)[C@H](CC(C)C)NC(=O)[C@H](CO)NC(=O)[C@H](CCSC)NC(=O)[C@H](Cc1c[nH]c2ccccc12)NC(=O)[C@H](CCCCN)NC(=O)CN)C(=O)N[C@@H](CC(C)C)C(=O)N[C@@H](CCCCN)C(N)=O [GKWMSLLKQILK] | 
15 |  |  | 1.1 (≈ 1.63 µg/mL) |  | 2.3 (≈ 3.41 µg/mL) | 50 (≈ 74.1 µg/mL) | 9.2 (≈ 13.6 µg/mL) | CC[C@H](C)[C@H](NC(=O)[C@H](Cc1cnc[nH]1)NC(=O)[C@H](CCCCN)NC(=O)[C@H](CC(C)C)NC(=O)[C@H](CC(C)C)NC(=O)[C@H](CO)NC(=O)[C@H](CCSC)NC(=O)[C@H](Cc1c[nH]c2ccccc12)NC(=O)[C@H](CCCCN)NC(=O)[C@@H](N)CO)C(=O)N[C@@H](CC(C)C)C(=O)N[C@@H](CCCCN)C(N)=O [SKWMSLLKHILK] | 
